Values quoted from earlier work as cited in patent US20210008209A1, “COMBINATION THERAPY FOR TTR AMYLOIDOSIS” (Corino Therapeutics, Inc., priority 2018, published 2021).

Tests used:
TTR = biological target: T1, TTR (Homo sapiens, UniProt P02766)
T1 construct: host or cells: human plasma

TTR native tetramer [1] = conditions: mice
TTR native tetramer [2] = biological target: T2, TTR native tetramer (Homo sapiens, UniProt P02766); conditions: humans
T2 construct: host or cells: humans (in vivo)

SMILES: Cc1ccc(C(=O)c2cc(O)c(O)c([N+](=O)[O-])c2)cc1 [Tolcapone, tolcapone]
- binding to TTR in human plasma (TTR): binds specifically to TTR
- stabilization of the native tetramer in vivo (TTR native tetramer [1]): stabilizes the native tetramer
- stabilization of the native tetramer in vivo (TTR native tetramer [2]): stabilizes the native tetramer
- TTR cytotoxicity (TTR cytotoxicity): inhibits TTR cytotoxicity
